Laboratory results taken from article PMC12373846, “Hemoglobin as a pseudoperoxidase and drug target for oxidative stress-related diseases” (Signal Transduction and Targeted Therapy, 2025).
Where “and” joins values, the source holds several entries; their conditions need not be identical. Equal values may be shown once. Read-outs that look alike come from different tables or passages of the source.

Assays:
Assay in all cases: SafetyScreen87 panel
[1] = target: T1, beta 1 (h) (agonist radioligand) (Homo sapiens, UniProt P08588); settings: 1.0E-06 M, read-out: % Inhibition of Control Specific Binding (1st, 2nd, Mean)
T1 construct: purchased DiscoverX KINOMEscan scanEDGE; Eurofins Cerep SafetyScreen87
Procedure: (§1) The possibility of KDS12025 on kinase off-target, the KINOMEscan panel of scanEDGE assay was conducted in DiscoverX (CA, USA) using a site-directed competition binding with the test compounds. The assay results are given in Supplementary Table 4 and experimental information is available on the DiscoverX web page (www.discoverx.com). Moreover, the Delta SafetyScreen87 panel assay was conducted in Eurofins Discovery (Cerep, France). The assay results are given in Supplementary Table 5 and experimental information is available on the DiscoverX web page (https://www.eurofinsdiscoveryservices.com).

[2] = system: Cl- channel (GABA-gated) (TBOB site) (antagonist radioligand); settings: 1.0E-06 M, read-out: % Inhibition of Control Specific Binding (1st, 2nd, Mean)
Procedure: as §1

[3] = target: T2, beta 2 (h) (antagonist radioligand) (Homo sapiens, UniProt P07550)
T2 construct: purchased DiscoverX KINOMEscan scanEDGE; Eurofins Cerep SafetyScreen87
Procedure: as §1

[4] = system: glycine (strychnine-sensitive) (antagonist radioligand); settings: 1.0E-06 M, read-out: % Inhibition of Control Specific Binding (1st, 2nd, Mean)
Procedure: as §1

[5] = target: T3, CXCR2 (IL-8B) (h) (agonist radioligand) (Homo sapiens, UniProt P25025)
T3 construct: purchased DiscoverX KINOMEscan scanEDGE; Eurofins Cerep SafetyScreen87
Procedure: as §1

[6] = target: T4, GABAA1 (h) (alpha 1,beta 2,gamma 2) (agonist radioligand) (Homo sapiens, UniProt P14867+P47870); settings: 1.0E-06 M, read-out: % Inhibition of Control Specific Binding (1st, 2nd, Mean)
T4 construct: purchased DiscoverX KINOMEscan scanEDGE; Eurofins Cerep SafetyScreen87
Procedure: as §1

[7] = target: T5, delta (DOP) (h) (agonist radioligand) (Homo sapiens, UniProt P41143); settings: 1.0E-06 M; mean; read-out: % Inhibition of Control Specific Binding (1st, 2nd, Mean)
T5 construct: purchased DiscoverX KINOMEscan scanEDGE; Eurofins Cerep SafetyScreen87
Procedure: as §1

[8] = target: T6, GR (h) (agonist radioligand) (Homo sapiens, UniProt P04150); settings: 1.0E-06 M; mean; read-out: % Inhibition of Control Specific Binding (1st, 2nd, Mean)
T6 construct: purchased DiscoverX KINOMEscan scanEDGE; Eurofins Cerep SafetyScreen87
Procedure: as §1

[9] = target: T7, 5-HT2C (h) (antagonist radioligand) (Homo sapiens, UniProt P28335); settings: 1.0E-06 M; mean; read-out: % Inhibition of Control Specific Binding (1st, 2nd, Mean)
T7 construct: purchased DiscoverX KINOMEscan scanEDGE; Eurofins Cerep SafetyScreen87
Procedure: as §1

[10] = system: Ca2+ channel (L, diltiazem site) (benzothiazepines) (antagonist radioligand); settings: 1.0E-06 M, read-out: % Inhibition of Control Specific Binding (1st, 2nd, Mean)
Procedure: as §1

[11] = system: Ca2+ channel (L, verapamil site) (phenylalkylamine) (antagonist radioligand); settings: 1.0E-06 M, read-out: % Inhibition of Control Specific Binding (1st, 2nd, Mean)
Procedure: as §1

[12] = target: T8, N muscle-type (h) (antagonist radioligand) (Homo sapiens, UniProt P02708+P07510+Q07001); settings: 1.0E-06 M; mean; read-out: % Inhibition of Control Specific Binding (1st, 2nd, Mean)
T8 construct: purchased DiscoverX KINOMEscan scanEDGE; Eurofins Cerep SafetyScreen87
Procedure: as §1

[13] = target: T9, 5-HT1B (h) (antagonist radioligand) (Homo sapiens, UniProt P28222); settings: 1.0E-06 M; mean; read-out: % Inhibition of Control Specific Binding (1st, 2nd, Mean)
T9 construct: purchased DiscoverX KINOMEscan scanEDGE; Eurofins Cerep SafetyScreen87
Procedure: as §1

[14] = target: T10, hERG potassium channel (Homo sapiens, UniProt Q12809); settings: human, probe [3H] Dofetilide, 1.0E-06 M; read-out: % Inhibition of Control Specific Binding (1st, 2nd, Mean)
T10 construct: Eurofins Discovery (Cerep, France) SafetyScreen87 panel
Procedure: as §1

[15] = target: T11, MC4 (h) (agonist radioligand) (Homo sapiens, UniProt P32245); settings: 1.0E-06 M; read-out: % Inhibition of Control Specific Binding (1st, 2nd, Mean)
T11 construct: purchased DiscoverX KINOMEscan scanEDGE; Eurofins Cerep SafetyScreen87
Procedure: as §1

[16] = target: T12, kappa (h) (KOP) (agonist radioligand) (Homo sapiens, UniProt P41145); settings: 1.0E-06 M; mean; read-out: % Inhibition of Control Specific Binding (1st, 2nd, Mean)
T12 construct: purchased DiscoverX KINOMEscan scanEDGE; Eurofins Cerep SafetyScreen87
Procedure: as §1

[17] = target: T13, D1 (h) (antagonist radioligand) (Homo sapiens, UniProt P21728); settings: 1.0E-06 M, read-out: % Inhibition of Control Specific Binding (1st, 2nd, Mean)
T13 construct: purchased DiscoverX KINOMEscan scanEDGE; Eurofins Cerep SafetyScreen87
Procedure: as §1

[18] = target: T14, norepinephrine transporter (h) (antagonist radioligand) (Homo sapiens, UniProt P23975); settings: 1.0E-06 M, read-out: % Inhibition of Control Specific Binding (1st, 2nd, Mean)
T14 construct: Eurofins Discovery (Cerep, France) SafetyScreen87 panel
Procedure: as §1

[19] = target: T15, PPARgamma (h) (agonist radioligand) (Homo sapiens, UniProt P37231); settings: read-out: % Inhibition of Control Specific Binding (1st, 2nd, Mean); 1.0E-06 M
T15 construct: purchased DiscoverX KINOMEscan scanEDGE; Eurofins Cerep SafetyScreen87
Procedure: as §1

[20] = system: Ca2+ channel (L, dihydropyridine site) (antagonist radioligand); settings: 1.0E-06 M, read-out: % Inhibition of Control Specific Binding (1st, 2nd, Mean)
Procedure: as §1

[21] = target: T16, NK1 (h) (agonist radioligand) (Homo sapiens, UniProt P25103); settings: 1.0E-06 M; mean; read-out: % Inhibition of Control Specific Binding (1st, 2nd, Mean)
T16 construct: purchased DiscoverX KINOMEscan scanEDGE; Eurofins Cerep SafetyScreen87
Procedure: as §1

[22] = target: T17, N neuronal alpha 4beta 2 (h) (agonist radioligand) (Homo sapiens, UniProt P17787+P43681); settings: 1.0E-06 M; mean; read-out: % Inhibition of Control Specific Binding (1st, 2nd, Mean)
T17 construct: purchased DiscoverX KINOMEscan scanEDGE; Eurofins Cerep SafetyScreen87
Procedure: as §1

[23] = system: PCP (antagonist radioligand); settings: 1.0E-06 M; mean; read-out: % Inhibition of Control Specific Binding (1st, 2nd, Mean)
Procedure: as §1

[24] = target: T18, MC1 (agonist radioligand) (Mus musculus, UniProt Q01727); settings: 1.0E-06 M; mean; read-out: % Inhibition of Control Specific Binding (1st, 2nd, Mean)
T18 construct: purchased DiscoverX KINOMEscan scanEDGE; Eurofins Cerep SafetyScreen87
Procedure: as §1

[25] = target: T19, adenosine transporter (antagonist radioligand) (Cavia porcellus, UniProt H0V4R7)
T19 construct: Eurofins Discovery (Cerep, France) SafetyScreen87 panel
Procedure: as §1

[26] = target: T20, D2L (h) (antagonist radioligand) (Homo sapiens, UniProt P14416); settings: 1.0E-06 M, read-out: % Inhibition of Control Specific Binding (1st, 2nd, Mean)
T20 construct: purchased DiscoverX KINOMEscan scanEDGE; Eurofins Cerep SafetyScreen87
Procedure: as §1

[27] = target: T21, 5-HT transporter (h) (antagonist radioligand) (Homo sapiens, UniProt P31645); settings: 1.0E-06 M, read-out: % Inhibition of Control Specific Binding (1st, 2nd, Mean)
T21 construct: Eurofins Discovery (Cerep, France) SafetyScreen87 panel
Procedure: as §1

[28] = system: NMDA (antagonist radioligand); settings: 1.0E-06 M, read-out: % Inhibition of Control Specific Binding (1st, 2nd, Mean)
Procedure: as §1

[29] = target: T22, M4 (h) (antagonist radioligand) (Homo sapiens, UniProt P08173); settings: 1.0E-06 M; mean; read-out: % Inhibition of Control Specific Binding (1st, 2nd, Mean)
T22 construct: purchased DiscoverX KINOMEscan scanEDGE; Eurofins Cerep SafetyScreen87
Procedure: as §1

[30] = system: kainate (agonist radioligand); settings: 1.0E-06 M, read-out: % Inhibition of Control Specific Binding (1st, 2nd, Mean)
Procedure: as §1

[31] = target: T23, PAF (h) (agonist radioligand) (Homo sapiens, UniProt P25105); settings: 1.0E-06 M; read-out: % Inhibition of Control Specific Binding (1st, 2nd, Mean)
T23 construct: purchased DiscoverX KINOMEscan scanEDGE; Eurofins Cerep SafetyScreen87
Procedure: as §1

[32] = 1.0E-06 M; read-out: % Inhibition of Control Specific Binding (1st, 2nd, Mean)
[33] = read-out: % Inhibition of Control Specific Binding (1st, 2nd, Mean); 1.0E-06 M

T21 sequence (P31645 whole entry): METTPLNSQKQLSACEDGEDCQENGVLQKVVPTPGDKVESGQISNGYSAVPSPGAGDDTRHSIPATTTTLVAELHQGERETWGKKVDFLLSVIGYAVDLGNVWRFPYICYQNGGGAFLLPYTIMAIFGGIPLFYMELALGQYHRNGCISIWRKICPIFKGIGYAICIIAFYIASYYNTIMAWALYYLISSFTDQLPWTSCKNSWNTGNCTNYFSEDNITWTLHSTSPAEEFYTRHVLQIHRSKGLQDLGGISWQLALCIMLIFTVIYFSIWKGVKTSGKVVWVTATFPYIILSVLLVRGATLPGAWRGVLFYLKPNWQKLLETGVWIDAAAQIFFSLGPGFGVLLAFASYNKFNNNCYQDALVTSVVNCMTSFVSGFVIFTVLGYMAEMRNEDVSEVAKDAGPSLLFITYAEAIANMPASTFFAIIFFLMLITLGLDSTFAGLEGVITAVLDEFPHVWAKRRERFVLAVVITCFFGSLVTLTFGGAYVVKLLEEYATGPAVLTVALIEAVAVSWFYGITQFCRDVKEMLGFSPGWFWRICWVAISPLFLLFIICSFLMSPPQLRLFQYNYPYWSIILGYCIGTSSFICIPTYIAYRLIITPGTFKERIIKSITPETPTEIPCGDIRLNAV
T4 sequence (P14867 28-456): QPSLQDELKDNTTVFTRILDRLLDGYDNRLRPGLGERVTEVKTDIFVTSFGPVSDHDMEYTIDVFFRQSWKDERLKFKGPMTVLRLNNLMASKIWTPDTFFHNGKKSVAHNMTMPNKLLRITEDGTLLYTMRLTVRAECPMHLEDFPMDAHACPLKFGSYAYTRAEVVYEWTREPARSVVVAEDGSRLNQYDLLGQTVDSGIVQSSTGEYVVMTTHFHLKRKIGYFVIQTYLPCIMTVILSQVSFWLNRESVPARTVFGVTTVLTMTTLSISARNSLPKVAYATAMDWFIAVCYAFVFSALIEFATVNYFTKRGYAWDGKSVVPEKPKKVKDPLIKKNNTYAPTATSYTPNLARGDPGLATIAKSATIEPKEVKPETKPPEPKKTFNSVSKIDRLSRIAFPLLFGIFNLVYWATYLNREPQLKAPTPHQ
T4 sequence (P47870 25-512 limits assumed): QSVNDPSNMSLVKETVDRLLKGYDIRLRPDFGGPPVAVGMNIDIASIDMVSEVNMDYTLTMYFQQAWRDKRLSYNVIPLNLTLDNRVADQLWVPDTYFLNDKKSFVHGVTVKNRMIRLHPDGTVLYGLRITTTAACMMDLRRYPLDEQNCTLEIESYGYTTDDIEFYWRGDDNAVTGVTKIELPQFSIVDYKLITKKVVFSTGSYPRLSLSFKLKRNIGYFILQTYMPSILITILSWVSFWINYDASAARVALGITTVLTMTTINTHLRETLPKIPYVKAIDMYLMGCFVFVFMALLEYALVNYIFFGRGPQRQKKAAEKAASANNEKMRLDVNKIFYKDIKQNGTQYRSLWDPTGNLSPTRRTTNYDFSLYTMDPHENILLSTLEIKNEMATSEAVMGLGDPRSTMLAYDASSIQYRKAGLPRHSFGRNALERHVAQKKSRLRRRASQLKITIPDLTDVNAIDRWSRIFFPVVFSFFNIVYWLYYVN
T4 sequence (P18507 40-467 partner limits assumed): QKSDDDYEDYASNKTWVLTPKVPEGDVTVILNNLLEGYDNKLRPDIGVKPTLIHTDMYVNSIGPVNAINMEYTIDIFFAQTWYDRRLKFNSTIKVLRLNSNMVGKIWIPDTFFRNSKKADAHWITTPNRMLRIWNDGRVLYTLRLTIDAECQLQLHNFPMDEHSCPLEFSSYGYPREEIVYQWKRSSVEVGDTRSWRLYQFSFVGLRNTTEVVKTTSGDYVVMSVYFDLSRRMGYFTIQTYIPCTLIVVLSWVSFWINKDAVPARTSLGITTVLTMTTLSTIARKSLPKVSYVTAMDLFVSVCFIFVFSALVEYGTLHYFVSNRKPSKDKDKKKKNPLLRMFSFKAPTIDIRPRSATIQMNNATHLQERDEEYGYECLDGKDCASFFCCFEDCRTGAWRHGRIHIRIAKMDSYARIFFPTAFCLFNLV
T1 sequence (P08588 whole entry): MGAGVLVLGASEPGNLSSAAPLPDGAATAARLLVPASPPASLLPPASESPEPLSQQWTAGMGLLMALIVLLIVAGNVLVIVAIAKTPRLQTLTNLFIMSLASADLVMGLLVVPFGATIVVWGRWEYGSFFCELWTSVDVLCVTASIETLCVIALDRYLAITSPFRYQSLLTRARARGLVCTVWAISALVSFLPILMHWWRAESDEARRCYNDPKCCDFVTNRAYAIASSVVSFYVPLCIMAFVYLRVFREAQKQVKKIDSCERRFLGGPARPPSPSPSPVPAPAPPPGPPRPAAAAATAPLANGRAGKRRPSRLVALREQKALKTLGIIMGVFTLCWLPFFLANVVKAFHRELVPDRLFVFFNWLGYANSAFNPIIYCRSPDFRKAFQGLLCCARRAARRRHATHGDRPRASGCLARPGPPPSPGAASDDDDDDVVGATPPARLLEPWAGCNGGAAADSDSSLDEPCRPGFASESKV
T20 sequence (P14416 whole entry): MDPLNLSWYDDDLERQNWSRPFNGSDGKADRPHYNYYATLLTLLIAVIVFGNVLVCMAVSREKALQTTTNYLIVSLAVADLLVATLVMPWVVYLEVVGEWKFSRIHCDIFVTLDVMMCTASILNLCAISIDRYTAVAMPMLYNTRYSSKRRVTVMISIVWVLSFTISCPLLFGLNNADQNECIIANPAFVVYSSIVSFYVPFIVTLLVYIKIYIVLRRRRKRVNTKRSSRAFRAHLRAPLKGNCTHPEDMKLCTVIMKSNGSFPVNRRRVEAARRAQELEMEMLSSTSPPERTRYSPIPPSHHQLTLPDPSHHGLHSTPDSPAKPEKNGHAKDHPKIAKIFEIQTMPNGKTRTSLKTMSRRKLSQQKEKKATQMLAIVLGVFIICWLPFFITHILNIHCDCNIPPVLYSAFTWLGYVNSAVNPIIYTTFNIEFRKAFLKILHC
T13 sequence (P21728 whole entry): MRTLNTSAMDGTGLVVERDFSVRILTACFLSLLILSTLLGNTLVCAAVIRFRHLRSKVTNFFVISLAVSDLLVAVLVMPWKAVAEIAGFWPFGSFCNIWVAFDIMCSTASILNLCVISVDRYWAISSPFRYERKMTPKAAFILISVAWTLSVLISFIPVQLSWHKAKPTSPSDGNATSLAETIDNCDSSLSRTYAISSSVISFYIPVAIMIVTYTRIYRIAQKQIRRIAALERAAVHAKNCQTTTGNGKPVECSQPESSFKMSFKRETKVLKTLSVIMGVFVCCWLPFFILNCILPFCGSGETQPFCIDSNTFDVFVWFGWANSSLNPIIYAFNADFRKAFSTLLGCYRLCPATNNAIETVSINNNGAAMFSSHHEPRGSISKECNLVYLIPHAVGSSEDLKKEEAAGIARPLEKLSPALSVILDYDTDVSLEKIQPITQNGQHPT
T19 sequence (H0V4R7 1-461): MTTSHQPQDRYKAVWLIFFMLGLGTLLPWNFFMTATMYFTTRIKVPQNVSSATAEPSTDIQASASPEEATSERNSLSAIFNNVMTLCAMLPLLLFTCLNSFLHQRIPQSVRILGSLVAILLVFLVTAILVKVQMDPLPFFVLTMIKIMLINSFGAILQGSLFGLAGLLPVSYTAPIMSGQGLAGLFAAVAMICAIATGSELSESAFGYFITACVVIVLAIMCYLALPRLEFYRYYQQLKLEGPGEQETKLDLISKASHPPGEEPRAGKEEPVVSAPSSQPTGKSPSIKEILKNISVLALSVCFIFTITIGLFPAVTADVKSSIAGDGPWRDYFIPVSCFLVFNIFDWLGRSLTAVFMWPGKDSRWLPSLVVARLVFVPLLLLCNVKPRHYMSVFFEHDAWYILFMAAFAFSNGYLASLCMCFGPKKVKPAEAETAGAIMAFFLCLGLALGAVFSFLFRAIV
T2 sequence (P07550 whole entry): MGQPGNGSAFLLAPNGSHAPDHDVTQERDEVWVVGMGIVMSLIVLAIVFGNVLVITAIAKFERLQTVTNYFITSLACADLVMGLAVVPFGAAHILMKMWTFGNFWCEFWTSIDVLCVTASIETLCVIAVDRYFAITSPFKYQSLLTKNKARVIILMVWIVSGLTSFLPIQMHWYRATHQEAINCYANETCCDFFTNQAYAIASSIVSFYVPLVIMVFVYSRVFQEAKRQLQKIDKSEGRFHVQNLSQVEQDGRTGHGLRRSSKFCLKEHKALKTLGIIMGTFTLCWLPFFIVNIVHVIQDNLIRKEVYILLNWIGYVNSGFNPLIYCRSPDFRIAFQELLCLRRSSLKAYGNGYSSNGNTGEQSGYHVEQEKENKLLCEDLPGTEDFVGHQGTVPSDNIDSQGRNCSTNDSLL
T3 sequence (P25025 whole entry): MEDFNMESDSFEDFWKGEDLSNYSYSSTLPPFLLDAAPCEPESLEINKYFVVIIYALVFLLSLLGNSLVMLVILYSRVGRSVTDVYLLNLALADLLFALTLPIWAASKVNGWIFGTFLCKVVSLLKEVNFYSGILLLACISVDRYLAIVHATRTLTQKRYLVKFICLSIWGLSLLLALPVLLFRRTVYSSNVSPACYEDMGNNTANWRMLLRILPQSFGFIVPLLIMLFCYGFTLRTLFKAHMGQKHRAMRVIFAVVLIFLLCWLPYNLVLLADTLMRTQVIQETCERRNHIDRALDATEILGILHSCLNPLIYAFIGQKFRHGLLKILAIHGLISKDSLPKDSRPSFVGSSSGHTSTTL
T23 sequence (P25105 whole entry): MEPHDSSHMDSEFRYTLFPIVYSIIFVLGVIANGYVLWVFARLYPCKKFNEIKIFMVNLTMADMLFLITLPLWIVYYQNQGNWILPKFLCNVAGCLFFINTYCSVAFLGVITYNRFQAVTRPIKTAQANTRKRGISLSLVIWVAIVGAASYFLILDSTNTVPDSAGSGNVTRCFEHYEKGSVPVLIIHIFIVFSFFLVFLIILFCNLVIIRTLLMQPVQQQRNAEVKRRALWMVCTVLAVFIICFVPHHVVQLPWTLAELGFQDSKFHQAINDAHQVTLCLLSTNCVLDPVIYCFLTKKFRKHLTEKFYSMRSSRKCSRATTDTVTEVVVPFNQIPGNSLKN

Structure (SMILES): CNc1ccc(NCCc2ccccc2OC)cc1.Cl [KDS12025, N^1-(2-methoxyphenethyl)-N^4-methylbenzene-1,4-diamine hydrochloride salt]
- activity ([1]; mean): 90.5%
- activity [1]: 86.7% and 94.3%
- activity ([2]; mean): 96.4%
- activity [2]: 104% and 89%
- activity [3, 32]: 104%
- activity [3, 33]: 96.8%
- activity ([4]; mean): 118%
- activity [4]: 117% and 118%
- activity [5, 32]: 83.3%
- activity [5, 33]: 91.8%
- activity ([6]; mean): 95.1%
- activity [6]: 92.4% and 97.8%
- activity [7]: 79.7%
- activity [8]: 104%
- activity [9]: 76.4%
- activity ([10]; mean): 84.9%
- activity [10]: 88.1% and 81.7%
- activity ([11]; mean): 98%
- activity [11]: 101% and 95.5%
- activity [12]: 74.3%
- activity [13]: 90.8%
- activity at 1 µM [14]: 70.3%
- activity [15]: 88.7%
- activity [16]: 82.7%
- activity ([17]; mean): 97.5%
- activity [17]: 91.1% and 104%
- activity ([18]; mean): 93.3%
- activity [18]: 89.5%
- activity [19]: 94.7%
- activity ([20]; mean): 129%
- activity [20]: 138% and 121%
- activity [21]: 91.2%
- activity [22]: 98.4%
- activity [23]: 92%
- activity [24]: 109%
- activity [25, 32]: 101%
- activity [25, 33]: 98.6%
- activity ([26]; mean): 84%
- activity [26]: 74.8% and 93.2%
- activity ([27]; mean): 54.6%
- activity [27]: 62.9% and 46.4%
- activity ([28]; mean): 98.7%
- activity [28]: 97.8% and 99.6%
- activity [29]: 102%
- activity ([30]; mean): 97.4%
- activity [30]: 76.8% and 118%
- activity [31]: 106%
